Laboratory results taken from US11292791B2 (priority 2017, dated 2022).

Biological target: BRD4 (Homo sapiens (Human), UniProt O60885)
Conditions: read-out: BRD4 IC50 (μM gmean)

Compound | IC50 [µM]
COC(=O)N1c2ccc3c(nc(CCn4cccn4)n3CC(=O)NCCc3ccccn3)c2CC[C@@H]1C [Example 338] | 1 to 1000
COC(=O)N1c2ccc3c(nc(CCn4cccn4)n3CC(=O)NCc3ccnc(O)c3)c2CC[C@@H]1C [Example 339] | 1 to 1000
COC(=O)N1c2ccc3c(nc(CCn4cccn4)n3CC(=O)NCc3ncco3)c2CC[C@@H]1C [Example 340] | 1 to 1000
COC(=O)N1c2ccc3c(nc(CCn4cccn4)n3CC(=O)NCc3cnco3)c2CC[C@@H]1C [Example 342] | 1 to 1000
COC(=O)N1c2ccc3c(nc(CCn4cccn4)n3CC(=O)NCc3nnc(C)n3C)c2CC[C@@H]1C [Example 343] | 1 to 1000
COC(=O)N1c2ccc3c(nc(CCn4cccn4)n3CC(=O)NCc3cnn(C)c3)c2CC[C@@H]1C [Example 344] | 1 to 1000
COC(=O)N1c2ccc3c(nc(CCn4cccn4)n3CC(=O)NCc3ccn(C)n3)c2CC[C@@H]1C [Example 345] | 1 to 1000
COC(=O)N1c2ccc3c(nc(CCn4cccn4)n3CC(=O)NCc3cccnc3)c2CC[C@@H]1C [Example 346] | 1 to 1000
COC(=O)N1c2ccc3c(nc(CCn4cccn4)n3CC(=O)NC[C@H]3CCCO3)c2CC[C@@H]1C [Example 347] | 1 to 1000
COC(=O)N1c2ccc3c(nc(CCn4cccn4)n3CC(=O)N[C@H]3CC[C@H](CO)CC3)c2CC[C@@H]1C [Example 348] | 1 to 1000
COC(=O)N1c2ccc3c(nc(CCn4cccn4)n3CC(=O)N[C@H](C)CO)c2CC[C@@H]1C [Example 349] | 1 to 1000
COC(=O)N1c2ccc3c(nc(CCn4cccn4)n3CC(=O)N(C)CCO)c2CC[C@@H]1C [Example 350] | 1 to 1000
COC(=O)N1c2ccc3c(nc(CCn4cccn4)n3CC(=O)N(C)CC(=O)N(C)C)c2CC[C@@H]1C [Example 351] | 1 to 1000
COC(=O)N1c2ccc3c(nc(CCn4cccn4)n3CC(=O)N3CCC(O)CC3)c2CC[C@@H]1C [Example 352] | 1 to 1000
COC(=O)N1c2ccc3c(nc(CCn4cccn4)n3CC(=O)N3CCC(CO)CC3)c2CC[C@@H]1C [Example 353] | 1 to 1000
COC(=O)N1c2ccc3c(nc(CCn4cccn4)n3CC(=O)NCC(=O)N(C)C)c2CC[C@@H]1C [Example 354] | 1 to 1000
COC(=O)N1c2ccc3c(nc(CCn4cccn4)n3CC(=O)N(C)C3CCOCC3)c2CC[C@@H]1C [Example 356] | 1 to 1000
COC(=O)N1c2ccc3c(nc(CCn4cccn4)n3CC(=O)NCC3CCOCC3)c2CC[C@@H]1C [Example 357] | 1 to 1000
COC(=O)N1c2ccc3c(nc(CCn4cccn4)n3CC(=O)NC3CCOCC3)c2CC[C@@H]1C [Example 358] | 1 to 1000
COC(=O)N1c2ccc3c(nc(CCn4cccn4)n3CC(=O)N(C)[C@H]3CCOC3)c2CC[C@@H]1C [Example 359] | 1 to 1000
COC(=O)N1c2ccc3c(nc(CCn4cccn4)n3CC(=O)N3CC[C@H](C(N)=O)C3)c2CC[C@@H]1C [Example 360] | 1 to 1000
COC(=O)N1c2ccc3c(nc(CCn4cccn4)n3CC(=O)N(C)CC(C)(C)O)c2CC[C@@H]1C [Example 361] | 1 to 1000
COC(=O)N1c2ccc3c(nc(CCn4cccn4)n3CC(=O)NCC3(O)CCC3)c2CC[C@@H]1C [Example 362] | 1 to 1000
COC(=O)N1c2ccc3c(nc(CCn4cccn4)n3CC(=O)NCc3cc(C)no3)c2CC[C@@H]1C [Example 363] | 1 to 1000

Compound | IC50 [µM]
COC(=O)N1c2ccc3c(nc(CCn4cccn4)n3CC(=O)NCC3(C)COC3)c2CC[C@@H]1C [Example 364] | 1 to 1000
COC(=O)N1c2ccc3c(nc(CCn4cccn4)n3CC(=O)NC3COC3)c2CC[C@@H]1C [Example 365] | 1 to 1000
COC(=O)N1c2ccc3c(nc(CCn4cccn4)n3CC(=O)NCC#N)c2CC[C@@H]1C [Example 366] | 1 to 1000
COC(=O)N1c2ccc3c(nc(CCn4cccn4)n3CC(=O)NCc3ccno3)c2CC[C@@H]1C [Example 367] | 1 to 1000
COC(=O)N1c2ccc3c(nc(CCn4cccn4)n3CC(=O)N3CC[C@@H](NC(C)=O)C3)c2CC[C@@H]1C [Example 370] | 1 to 1000
COC(=O)N1c2ccc3c(nc(CCn4cccn4)n3CC(=O)NCc3ncnn3C)c2CC[C@@H]1C [Example 371] | 1 to 1000
COC(=O)N1c2ccc3c(nc(CCn4ccccc4=O)n3CC(=O)NCc3ncnn3C)c2CC[C@@H]1C [Example 372] | 1 to 1000
COC(=O)N1c2ccc3c(nc(CCn4ccccc4=O)n3CC(=O)NCc3ccncn3)c2CC[C@@H]1C [Example 373] | 1 to 1000
COC(=O)N1c2ccc3c(nc(CCn4ccccc4=O)n3CC(=O)NCCc3ccccn3)c2CC[C@@H]1C [Example 374] | 1 to 1000
COC(=O)N1c2ccc3c(nc(CCn4ccccc4=O)n3CC(=O)NCc3cccnc3)c2CC[C@@H]1C [Example 375] | 1 to 1000
COC(=O)N1c2ccc3c(nc(CCn4ccccc4=O)n3CC(=O)NC[C@H]3CCCO3)c2CC[C@@H]1C [Example 376] | 1 to 1000
COC(=O)N1c2ccc3c(nc(CCn4ccccc4=O)n3CC(=O)N[C@H]3CC[C@H](CO)CC3)c2CC[C@@H]1C [Example 377] | 1 to 1000
COC(=O)N1c2ccc3c(nc(CCn4ccccc4=O)n3CC(=O)N[C@H](C)CO)c2CC[C@@H]1C [Example 378] | 1 to 1000
COC(=O)N1c2ccc3c(nc(CCn4ccccc4=O)n3CC(=O)N(C)CCO)c2CC[C@@H]1C [Example 379] | 1 to 1000
COC(=O)N1c2ccc3c(nc(CCn4ccccc4=O)n3CC(=O)N(C)CC(=O)N(C)C)c2CC[C@@H]1C [Example 380] | 1 to 1000
COC(=O)N1c2ccc3c(nc(CCn4ccccc4=O)n3CC(=O)N3CCC(O)CC3)c2CC[C@@H]1C [Example 381] | 1 to 1000
COC(=O)N1c2ccc3c(nc(CCn4ccccc4=O)n3CC(=O)NCC(=O)N(C)C)c2CC[C@@H]1C [Example 382] | 1 to 1000
COC(=O)N1c2ccc3c(nc(CCn4ccccc4=O)n3CC(=O)NCC(=O)N3CCCC3)c2CC[C@@H]1C [Example 383] | 1 to 1000
COC(=O)N1c2ccc3c(nc(CCn4ccccc4=O)n3CC(=O)N(C)C3CCOCC3)c2CC[C@@H]1C [Example 384] | 1 to 1000
COC(=O)N1c2ccc3c(nc(CCn4ccccc4=O)n3CC(=O)NCC3CCOCC3)c2CC[C@@H]1C [Example 385] | 1 to 1000
COC(=O)N1c2ccc3c(nc(CCn4ccccc4=O)n3CC(=O)NC3CCOCC3)c2CC[C@@H]1C [Example 386] | 1 to 1000
COC(=O)N1c2ccc3c(nc(CCn4ccccc4=O)n3CC(=O)N(C)[C@H]3CCOC3)c2CC[C@@H]1C [Example 387] | 1 to 1000
COC(=O)N1c2ccc3c(nc(CCn4ccccc4=O)n3CC(=O)N3CC[C@H](C(N)=O)C3)c2CC[C@@H]1C [Example 388] | 1 to 1000
COC(=O)N1c2ccc3c(nc(CCn4ccccc4=O)n3CC(=O)N(C)CC(C)(C)O)c2CC[C@@H]1C [Example 389] | 1 to 1000

Compound | IC50 [µM]
COC(=O)N1c2ccc3c(nc(CCn4ccccc4=O)n3CC(=O)NCC3(O)CCC3)c2CC[C@@H]1C [Example 390] | 1 to 1000
COC(=O)N1c2ccc3c(nc(CCn4ccccc4=O)n3CC(=O)NCc3cc(C)no3)c2CC[C@@H]1C [Example 391] | 1 to 1000
COC(=O)N1c2ccc3c(nc(CCn4ccccc4=O)n3CC(=O)NCC3(C)COC3)c2CC[C@@H]1C [Example 392] | 1 to 1000
COC(=O)N1c2ccc3c(nc(CCn4ccccc4=O)n3CC(=O)NC3COC3)c2CC[C@@H]1C [Example 393] | 1 to 1000
COC(=O)N1c2ccc3c(nc(CCn4ccccc4=O)n3CC(=O)NCC#N)c2CC[C@@H]1C [Example 394] | 1 to 1000
COC(=O)N1c2ccc3c(nc(CCn4ccccc4=O)n3CC(=O)NCCN3CCNC3=O)c2CC[C@@H]1C [Example 395] | 1 to 1000
COC(=O)N1c2ccc3c(nc(CCn4ccccc4=O)n3CC(=O)N3CCC(C#N)CC3)c2CC[C@@H]1C [Example 396] | 1 to 1000
COC(=O)N1c2ccc3c(nc(CCn4ccccc4=O)n3CC(=O)N3CC[C@@H](NC(C)=O)C3)c2CC[C@@H]1C [Example 397] | 1 to 1000
COC(=O)N1c2ccc3c(nc(CCn4ccccc4=O)n3CC(=O)N3CC[C@H](NC(C)=O)C3)c2CC[C@@H]1C [Example 398] | 1 to 1000
COC(=O)N1c2ccc3c(nc(CCn4ccccc4=O)n3CC(=O)N3CC[C@H](O)C3)c2CC[C@@H]1C [Example 399] | 1 to 1000
COC(=O)N1c2ccc3c(nc(CCn4ccccc4=O)n3CC(=O)N3CCNC(=O)C3)c2CC[C@@H]1C [Example 400] | 1 to 1000
COC(=O)N1c2ccc3c(nc(CCn4ccccc4=O)n3CC(=O)N3CCC(F)(F)C3)c2CC[C@@H]1C [Example 401] | 1 to 1000
COC(=O)N1c2ccc3c(nc(CCn4ccccc4=O)n3CC(=O)N3CCn4ccnc4C3)c2CC[C@@H]1C [Example 402] | 1 to 1000
COC(=O)N1c2ccc3c(nc(CCn4ccccc4=O)n3CC(=O)Nc3ccn[nH]3)c2CC[C@@H]1C [Example 403] | 1 to 1000
COC(=O)N1c2ccc3c(nc(CC(C(=O)O)c4ccccc4)n3C3CCCC(OC)C3)c2CC[C@@H]1C (some centres unmarked) [Example 404] | 1 to 1000
COC(=O)N1c2ccc3c(nc(C(C)Cc4ccc(F)c(F)c4)n3C3CCCC(C(=O)O)C3)c2CC[C@@H]1C (some centres unmarked) [Example 405] | 1 to 1000
COC(=O)N1c2ccc3c(nc(CC(C(=O)O)c4ccc(C)c(F)c4)n3C3CCCOC3)c2CC[C@@H]1C (some centres unmarked) [Example 407] | 1 to 1000
COC(=O)N1c2ccc3c(nc(C(O)c4ccc(F)c(F)c4)n3C3CCCC(C(=O)O)C3)c2CC[C@@H]1C (some centres unmarked) [Example 432] | 1 to 1000
COC(=O)N1c2ccc3c(nc(C(C)Cn4cc(Cl)cn4)n3C3CCCC(C(=O)O)C3)c2CC[C@@H]1C (some centres unmarked) [Example 443] | 1 to 1000
COC(=O)N1c2ccc3c(nc(CC(C(=O)O)c4ccc(C)c(F)c4)n3C3CCCOC3)c2CC[C@@H]1C (some centres unmarked) [Example 446] | 1 to 1000
COC(=O)N1c2ccc3c(nc(CC(C(=O)O)c4ccc(F)c(F)c4)n3C3CCCC3)c2CC[C@@H]1C (some centres unmarked) [Example 447] | 1 to 1000
COC(=O)N1c2ccc3c(nc(C(O)c4cc(F)ccc4F)n3C3CCCC(C(=O)O)C3)c2CC[C@@H]1C (some centres unmarked) [Example 449] | 1 to 1000
COC(=O)N1c2ccc3c(nc(CC(C(=O)O)c4ccccc4)n3C3CCCC(OC)C3)c2CC[C@@H]1C (some centres unmarked) [Example 455] | 1 to 1000
